Several values for one entry are separate records, joined by “and”; a condition that tells them apart may be missing. Equal entries are not always repeated.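 Results reflect a 48-hour exposure of cells in 96-well plates to compound at five concentrations. GI50 is the concentration that inhibits growth by half. TGI: total growth inhibition.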
Key:
Test in all cases: NCI-60 cell line screen, 48 h
[1] = system: EKVX NSCLC
[2] = system: HCC-2998 colon
[3] = system: SK-MEL-5 melanoma
[4] = system: OVCAR-3 ovarian
[5] = system: 786-0 renal
[6] = system: UACC-257 melanoma
[7] = system: TK-10 renal
[8] = system: IGROV1 ovarian
[9] = system: SF-268 CNS
[10] = system: HCT-15 colon

| SMILES | GI50 [1] | TGI [1] | GI50 [2] | TGI [2] | GI50 [3] | TGI [3] | GI50 [4] | TGI [4] | GI50 [5] | TGI [5] | GI50 [6] | TGI [6] | GI50 [7] | TGI [7] | GI50 [8] | TGI [8] | GI50 [9] | TGI [9] | GI50 [10] | TGI [10] |
| --- | --- | --- | --- | --- | --- | --- | --- | --- | --- | --- | --- | --- | --- | --- | --- | --- | --- | --- | --- | --- |
| C=C(C)[C@@H]1CC=C(CO)CC1 | > 10 µM | > 10 µM and 1250 µM | > 10 µM | > 10 µM and 1460 µM | > 10 µM | > 10 µM and 649 µM | > 10 µM | > 10 µM and 736 µM | > 10 µM | > 10 µM and 943 µM | > 10 µM | > 10 µM and 1150 µM | > 10 µM | > 10 µM and 998 µM | > 10 µM | > 10 µM and 1260 µM | > 10 µM | > 10 µM and 709 µM | > 10 µM | > 10 µM and 790 µM |
| NC(=O)[C@H]1CCN(c2ncnc(N)c2F)C[C@@H]1N1CCC[C@@H](Nc2cc(Cl)cc(C(F)(F)F)c2)C1=O | 28.7 µM | 77.1 µM | 14.6 µM | 36.3 µM | 16.3 µM | 30 µM | 28.5 µM | > 100 µM | 21.8 µM | > 100 µM | 20.3 µM | 59.7 µM | 13.5 µM | 39 µM | 5.12 µM | > 100 µM | 23.8 µM | > 100 µM | 15.1 µM | 48.2 µM |
| CSc1nnc(CCSc2ccnc3c(C(F)(F)F)cccc23)o1 | 9.21 µM | > 100 µM | 64.8 µM | > 100 µM | 46.1 µM | > 100 µM | 91.9 µM | > 100 µM | 95.3 µM | > 100 µM | > 100 µM | > 100 µM | 70.1 µM | > 100 µM | 83.2 µM | > 100 µM | 71.5 µM | > 100 µM | > 100 µM | > 100 µM |
| CC1(Sc2ccccc2)CN(Cc2ccccc2)C1=O (centres undefined) | – | > 100 µM | – | > 100 µM | – | > 100 µM | – | > 100 µM | – | > 100 µM | – | > 100 µM | – | > 100 µM | – | > 100 µM | – | > 100 µM | – | > 100 µM |
| O=C(Nc1cccc(Cl)c1)Nc1ncc(CCNc2ncnc3ccsc23)s1 | 3.13 µM and 3.14 µM | 19 µM and > 10 µM | 9.38 µM and > 10 µM | 25.6 µM and > 10 µM | 1.39 µM and 1.59 µM | 2.83 µM and 4.16 µM | 4.06 µM and 1.06 µM | 17.1 µM and > 10 µM | 7.55 µM and 6.41 µM | 41.1 µM and > 10 µM | 2.12 µM and 1.22 µM | 11.4 µM and 9.27 µM | 3.46 µM and 4.18 µM | 16.1 µM and > 10 µM | 7.43 µM and 3.6 µM | 44.1 µM and > 10 µM | 5.85 µM and 2.75 µM | 29.6 µM and > 10 µM | 2.99 µM and 1.79 µM | 20.4 µM and > 10 µM |
| CC(=O)/C(=C\c1ccco1)C(=O)Nc1ccccc1 | – | > 100 µM | – | > 100 µM | – | > 100 µM | – | > 100 µM | – | > 100 µM | – | > 100 µM | – | > 100 µM | – | > 100 µM | – | > 100 µM | – | > 100 µM |
| CC(=O)[O][Pb]([O]C(C)=O)([c]1ccccc1)[c]1ccccc1 | > 35 µM | > 100 µM | 44.9 µM | > 100 µM | 2.91 µM | 14 µM | 2.4 µM | > 100 µM | 3.53 µM | > 100 µM | 6.88 µM | > 100 µM | > 53.1 µM | > 100 µM | 5.98 µM | > 100 µM | 3.29 µM | 16.6 µM | 7.06 µM | > 100 µM |
| CC1=C(C(=O)OCc2ccccc2)C(c2ccc3c(c2)OCO3)n2c(nc3ccccc32)N1 (centres undefined) | 0.692 µM | > 100 µM | > 33.2 µM | > 100 µM | 0.472 µM | > 100 µM | 0.235 µM | 0.998 µM | 0.47 µM | > 100 µM | – | > 100 µM | > 100 µM | > 100 µM | 0.644 µM | > 100 µM | 0.513 µM | > 100 µM | 0.36 µM | > 100 µM |
| O=C(CCn1[nH]c(=O)c(Cl)c(Cl)c1=O)NOCCCc1ccccc1 | – | > 100 µM | – | > 100 µM | – | > 100 µM | – | > 100 µM | – | > 100 µM | – | > 100 µM | – | > 100 µM | – | > 100 µM | – | > 100 µM | – | > 100 µM |
| O=C1C/C(=C/c2ccc(/C=C3/CC(=O)N(c4cccc(Br)c4)C3=O)cc2)C(=O)N1c1cccc(Br)c1 | – | > 100 µM | – | > 100 µM | – | > 100 µM | – | > 100 µM | – | > 100 µM | – | > 100 µM | – | > 100 µM | – | > 100 µM | – | > 100 µM | – | > 100 µM |
| CC1(C)CCC2(C(=O)OC3OC(CO)C(O)C(O)C3O)CC[C@]3(C)C(=CCC4C5(C)CC[C@H](OC6OC(C(=O)O)C(O)C(O)C6O)C(C)(C)C5CCC43C)C2C1 (some centres undefined) | 3.39 µM | 36.6 µM | 0.89 µM | 1.64 µM | 0.929 µM | 1.78 µM | 3.27 µM | > 50 µM | 1.56 µM | 6.19 µM | 4.18 µM | 15.4 µM | 1.85 µM | 10.3 µM | 1.7 µM | > 50 µM | 2.17 µM | 11.4 µM | 6.73 µM | 13.3 µM |
| Cc1ccc(C(=O)Nc2ccc(S(=O)(=O)O)c3cc(S(=O)(=O)O)cc(S(=O)(=O)O)c23)cc1NC(=O)c1cccc(N)c1 | – | > 100 µM | – | > 100 µM | – | > 100 µM | – | > 100 µM | – | > 100 µM | – | > 100 µM | – | > 100 µM | – | > 100 µM | – | > 100 µM | – | > 100 µM |
| CCC[CH2][Sn]([CH2]CCC)([O]C(C)=O)[O]C(C)=O | 1.84 µM | 4.94 µM | 1.53 µM | 2.92 µM | 1.04 µM | 2.4 µM | 1.53 µM | 3.02 µM | 1.48 µM | 2.83 µM | 1.39 µM | 3.26 µM | 1.38 µM | 2.74 µM | 1.32 µM | 1.96 µM | 1.23 µM | 4.1 µM | 1.43 µM | 3.14 µM |
| CC[C@H](Nc1nc(N)nc(C)c1C#N)c1nc2cccc(CN(C)c3ncc(C(=O)NO)cn3)c2c(=O)n1-c1ccccc1 | 1.69 µM | 16.9 µM | 0.806 µM | 2.32 µM | 0.391 µM | 1.12 µM | 0.761 µM | 2.28 µM | 1.53 µM | 6.47 µM | 0.36 µM | 3.11 µM | 0.681 µM | 3.85 µM | 0.569 µM | 2.28 µM | 1.09 µM | 4.19 µM | 2.11 µM | 12 µM |
